Experimental findings from patent publication US8273774B2, “Phenoxypyridinylamide compounds” (AstraZeneca AB, priority 2008, dated 2012) are described below.

Chain of recombinant Human Phosphodiesterase B2 (PDE4B2) (Q07343 1-564 isoform Q07343-2): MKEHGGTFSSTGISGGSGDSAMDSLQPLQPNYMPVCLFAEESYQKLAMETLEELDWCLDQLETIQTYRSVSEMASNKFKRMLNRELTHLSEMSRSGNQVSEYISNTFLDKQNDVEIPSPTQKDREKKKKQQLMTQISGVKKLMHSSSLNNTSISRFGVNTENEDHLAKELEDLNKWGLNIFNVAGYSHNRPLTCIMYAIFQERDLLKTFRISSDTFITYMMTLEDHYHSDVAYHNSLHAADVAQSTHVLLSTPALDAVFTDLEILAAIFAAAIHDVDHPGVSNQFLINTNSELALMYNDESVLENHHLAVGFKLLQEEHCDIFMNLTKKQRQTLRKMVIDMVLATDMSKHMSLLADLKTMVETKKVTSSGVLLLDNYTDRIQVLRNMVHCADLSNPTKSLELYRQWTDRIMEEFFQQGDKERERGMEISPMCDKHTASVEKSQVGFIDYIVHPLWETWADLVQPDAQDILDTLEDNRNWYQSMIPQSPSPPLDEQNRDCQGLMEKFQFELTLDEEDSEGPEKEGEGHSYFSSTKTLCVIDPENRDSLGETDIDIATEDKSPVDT

The target of the assay is recombinant Human Phosphodiesterase B2 (PDE4B2) (Homo sapiens, UniProt Q07343). Briefly: Human Phosphodiesterase B2 Radiometric Assay. In kind it is biochemical. The following applies: 0.1 μg/mL recombinant PDE4B2; preincubated at 30 C for 30 min; [3H]cyclic AMP 8 nM, stopped after 20 min; yttrium silicate SPA beads; read-out: PDE4B2 pIC50 (converted). The method, boiled down:
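Compounds preincubated 30 min at 30 C with 0.1 μg/mL recombinant PDE4B2 in 50 mM HEPES pH 7.5, 8.3 mM MgCl2, 1.7 mM EGTA, 0.01% Brij 35.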
For the molecule `Cc1cccc2nc(C(=O)N[C@H]3CC[C@@H](NC(=O)c4cc(F)cnc4Oc4cccc(-c5ccc(CCCN6CCNCC6)cc5)c4)CC3)cn12` [Example 93, N-((1s,4s)-4-(5-fluoro-2-(4′-(3-(piperazin-1-yl)propyl)biphenyl-3-yloxy)nicotinamido)cyclohexyl)-5-methylimidazo[1,2-a]pyridine-2-carboxamide], the IC50 is 0.1 nM. The value for `Cc1nc(C(=O)N[C@H]2CC[C@@H](NC(=O)c3cc(F)cnc3Oc3cccc(-c4ccc(CCCN5CCCN(C)CC5)cc4)c3)CC2)cs1` [Example 134, N-((1s,4s)-4-(5-fluoro-2-(4′-(3-(4-methyl-1,4-diazepan-1-yl)propyl)biphenyl-3-yloxy)nicotinamido)cyclohexyl)-2-methylthiazole-4-carboxamide] was 0.0631 nM. In the case of `CC(C)NC(=O)CN1CCN(Cc2ccc(-c3cccc(Oc4ncc(F)cc4C(=O)N[C@H]4CC[C@@H](NC(=O)c5cc6n(n5)CCCC6)CC4)c3)c(CN3CCOCC3)c2)CC1` [Example 200, N-((1s,4s)-4-(5-fluoro-2-(4′-((4-(2-(isopropylamino)-2-oxoethyl)piperazin-1-yl)methyl)-2′-(morpholinomethyl)biphenyl-3-yloxy)nicotinamido)cyclohexyl)-4,5,6,7-tetrahydropyrazolo[1,5-a]pyridine-2-carboxamide], the IC50 was 0.0251 nM. The value for `Cc1csc(C(=O)N[C@H]2CC[C@@H](NC(=O)c3cc(F)cnc3Oc3cccc(-c4ccc(CN5CCN(CC(=O)NC(C)C)CC5)cc4CN4CCOCC4)c3)CC2)n1` [Example 198, N-((1s,4s)-4-(5-fluoro-2-(4′-((4-(2-(isopropylamino)-2-oxoethyl)piperazin-1-yl)methyl)-2′-(morpholinomethyl)biphenyl-3-yloxy)nicotinamido)cyclohexyl)-4-methylthiazole-2-carboxamide] was 0.0251 nM; that for `Cc1cc(C(=O)N[C@H]2CC[C@@H](NC(=O)c3cc(F)cnc3Oc3cccc(-c4ccc(CCCN5CCCC5)cc4)c3)CC2)nn1C` [Example 79, N-((1s,4s)-4-(1,5-dimethyl-1H-pyrazole-3-carboxamido)cyclohexyl)-5-fluoro-2-(4′-(3-(pyrrolidin-1-yl)propyl)biphenyl-3-yloxy)nicotinamide] was 0.0316 nM. The value for `Cc1nc(CN[C@H]2CC[C@@H](NC(=O)c3cc(F)cnc3Oc3cccc(-c4ccc(O)cc4CN4CCOCC4)c3)CC2)cs1` [Example 5, 5-fluoro-2-(4′-hydroxy-2′-(morpholinomethyl)biphenyl-3-yloxy)-N-((1s,4s)-4-((2-methylthiazol-4-yl)methylamino)cyclohexyl)nicotinamide] was 5.01 nM; that for `Cc1cc(C(=O)N[C@H]2CC[C@@H](NC(=O)c3cc(F)cnc3Oc3cccc(-c4ccc(CCCNCCCO)cc4)c3)CC2)nn1C` [Example 152, N-((1s,4s)-4-(1,5-dimethyl-1H-pyrazole-3-carboxamido)cyclohexyl)-5-fluoro-2-(4′-(3-(3-hydroxypropylamino)propyl)biphenyl-3-yloxy)nicotinamide] was 0.0398 nM.

Turning to `O=C(N[C@H]1CC[C@@H](NC(=O)c2cc(F)cnc2Oc2cccc(-c3ccc(CN4CCNCC4)cc3)c2)CC1)c1cc2n(n1)CCCC2` [Example 114, N-((1s,4s)-4-(5-fluoro-2-(4′-(piperazin-1-ylmethyl)biphenyl-3-yloxy)nicotinamido)cyclohexyl)-4,5,6,7-tetrahydropyrazolo[1,5-a]pyridine-2-carboxamide], the IC50 was 0.158 nM.

`CN(C)Cc1cc(O)ccc1-c1cccc(Oc2ncc(F)cc2C(=O)N[C@H]2CC[C@@H](NC(=O)c3cccc4[nH]cnc34)CC2)c1` [Example 52, N-((1s,4s)-4-(2-(2′-((dimethylamino)methyl)-4′-hydroxybiphenyl-3-yloxy)-5-fluoronicotinamido)cyclohexyl)-1H-benzo[d]imidazole-4-carboxamide]: the IC50 is 0.0501 nM.

As to `CC(C)c1nc(C(=O)N[C@H]2CC[C@@H](NC(=O)c3cc(F)cnc3Oc3cccc(-c4ccc(O)c(CN5C[C@@H](C)N[C@@H](C)C5)c4)c3)CC2)cs1` [Example 90, N-((1s,4s)-4-(2-(3′-(((3S,5R)-3,5-dimethylpiperazin-1-yl)methyl)-4′-hydroxybiphenyl-3-yloxy)-5-fluoronicotinamido)cyclohexyl)-2-isopropylthiazole-4-carboxamide], the IC50 was 0.2 nM.

As to `Cc1nc(C(=O)N[C@H]2CC[C@@H](NC(=O)c3cc(F)cnc3Oc3cccc(-c4ccc(CN(C)C)cc4CN4CCOCC4)c3)CC2)cs1` [Example 119, N-((1s,4s)-4-(2-(4′-((dimethylamino)methyl)-2′-(morpholinomethyl)biphenyl-3-yloxy)-5-fluoronicotinamido)cyclohexyl)-2-methylthiazole-4-carboxamide], the IC50 was 0.0794 nM. For `Cc1csc(C(=O)N[C@H]2CC[C@@H](NC(=O)c3cc(F)cnc3Oc3cccc(-c4ccc(O)c(CN5C[C@@H](C)N[C@@H](C)C5)c4)c3)CC2)n1` [Example 88, N-((1s,4s)-4-(2-(3′-(((3S,5R)-3,5-dimethylpiperazin-1-yl)methyl)-4′-hydroxybiphenyl-3-yloxy)-5-fluoronicotinamido)cyclohexyl)-4-methylthiazole-2-carboxamide] the value was 0.0316 nM. As for `Cc1nc(C(=O)N[C@H]2CC[C@@H](NC(=O)c3cc(F)cnc3Oc3cccc(-c4ccc(CN5C[C@@H](C)N[C@@H](C)C5)cc4)c3)CC2)cs1` [Example 54, N-((1s,4s)-4-(2-(4′-(((3S,5R)-3,5-dimethylpiperazin-1-yl)methyl)biphenyl-3-yloxy)-5-fluoronicotinamido)cyclohexyl)-2-methylthiazole-4-carboxamide], the IC50 is 0.0631 nM. For `Cc1nc(C(=O)N[C@H]2CC[C@@H](NC(=O)c3cc(F)cnc3Oc3cccc(-c4cccc(CN5C[C@@H](C)N[C@@H](C)C5)c4O)c3)CC2)cs1` [Example 69, N-((1s,4s)-4-(2-(3′-(((3R,5S)-3,5-dimethylpiperazin-1-yl)methyl)-2′-hydroxybiphenyl-3-yloxy)-5-fluoronicotinamido)cyclohexyl)-2-methylthiazole-4-carboxamide] the value was 0.398 nM; for `C[C@@H]1CN(Cc2ccc(-c3cccc(Oc4ncc(F)cc4C(=O)N[C@H]4CC[C@@H](NC(=O)c5cc6n(n5)CCCC6)CC4)c3)cc2)C[C@H](C)N1` [Example 113, N-((1s,4s)-4-(2-(4′-(((3S,5R)-3,5-dimethylpiperazin-1-yl)methyl)biphenyl-3-yloxy)-5-fluoronicotinamido)cyclohexyl)-4,5,6,7-tetrahydropyrazolo[1,5-a]pyridine-2-carboxamide], 0.0501 nM.

In the case of `Cc1nc(C(=O)N[C@H]2CC[C@@H](NC(=O)c3cc(F)cnc3Oc3cccc(-c4ccc(CCN5C[C@@H](C)N[C@@H](C)C5)cc4)c3)CC2)cs1` [Example 86, N-((1s,4s)-4-(2-(4′-(2-((3S,5R)-3,5-dimethylpiperazin-1-yl)ethyl)biphenyl-3-yloxy)-5-fluoronicotinamido)cyclohexyl)-2-methylthiazole-4-carboxamide], the IC50 is 0.0316 nM. The value for `O=C(N[C@H]1CC[C@@H](NC(=O)c2cc(F)cnc2Oc2cccc(-c3ccc(O)cc3CN3CCOCC3)c2)CC1)c1cc2ccccc2nc1O` [Example 42, N-((1s,4s)-4-(5-fluoro-2-(4′-hydroxy-2′-(morpholinomethyl)biphenyl-3-yloxy)nicotinamido)cyclohexyl)-2-hydroxyquinoline-3-carboxamide] was 0.0501 nM; that for `Cn1nc(C(=O)N[C@H]2CC[C@@H](NC(=O)c3cc(F)cnc3Oc3cccc(-c4ccc(CCN5CCNCC5)cc4)c3)CC2)cc1C(F)(F)F` [Example 176, 5-Fluoro-N-((1s,4s)-4-(1-methyl-5-(trifluoromethyl)-1H-pyrazole-3-carboxamido)cyclohexyl)-2-(4′-(2-(piperazin-1-yl)ethyl)biphenyl-3-yloxy)nicotinamide] was 0.0501 nM; that for `Cc1nc(C(=O)N[C@H]2CC[C@@H](NC(=O)c3cc(F)cnc3Oc3cccc(-c4ccc(CCCN5CCCC5)cc4)c3)CC2)cs1` [Example 73, N-((1s,4s)-4-(5-fluoro-2-(4′-(3-(pyrrolidin-1-yl)propyl)biphenyl-3-yloxy)nicotinamido)cyclohexyl)-2-methylthiazole-4-carboxamide] was 0.0631 nM. On to `Cc1nc(C(=O)N[C@H]2CC[C@@H](NC(=O)c3cc(F)cnc3Oc3cccc(-c4ccc(CN5CCCN(C)CC5)cc4)c3)CC2)cs1` [Example 60, N-((1s,4s)-4-(5-fluoro-2-(4′-((4-methyl-1,4-diazepan-1-yl)methyl)biphenyl-3-yloxy)nicotinamido)cyclohexyl)-2-methylthiazole-4-carboxamide], for which the IC50 is 0.0501 nM.

Turning to `C[C@@H]1CN(CCCc2ccc(-c3cccc(Oc4ncc(F)cc4C(=O)N[C@H]4CC[C@@H](NC(=O)c5cscn5)CC4)c3)cc2)C[C@H](C)N1` [Example 155, N-((1s,4s)-4-(2-(4′-(3-((3S,5R)-3,5-dimethylpiperazin-1-yl)propyl)biphenyl-3-yloxy)-5-fluoronicotinamido)cyclohexyl)thiazole-4-carboxamide], the IC50 was 0.0398 nM.

`Cc1cccc2nc(C(=O)N[C@H]3CC[C@@H](NC(=O)c4cc(F)cnc4Oc4cccc(-c5cccc(CN6CCNCC6)c5)c4)CC3)cn12` [Example 100, N-((1s,4s)-4-(5-fluoro-2-(3′-(piperazin-1-ylmethyl)biphenyl-3-yloxy)nicotinamido)cyclohexyl)-5-methylimidazo[1,2-a]pyridine-2-carboxamide]: the IC50 was 0.158 nM.

For `Cc1cc(C)n2ncc(C(=O)N[C@H]3CC[C@@H](NC(=O)c4cc(F)cnc4Oc4cccc(-c5ccc(CN6C[C@@H](C)N[C@@H](C)C6)cc5CN5CCSCC5)c4)CC3)c2n1` [Example 193, N-((1s,4s)-4-(2-(4′-(((3S,5R)-3,5-dimethylpiperazin-1-yl)methyl)-2′-(thiomorpholinomethyl)biphenyl-3-yloxy)-5-fluoronicotinamido)cyclohexyl)-5,7-dimethylpyrazolo[1,5-a]pyrimidine-3-carboxamide], the IC50 was 0.0251 nM.
